Test results: patent US12201621B2, “Base and pharmaceutical composition containing it” (BIOTTS S.A., priority 2019, dated 2025)
Structures can show the parent of a compound that is named as a salt. Where two headings read alike, the source gives them in different places.

Key:
[1] = in vivo; cited from earlier work
[2] = pharmacokinetics and bioavailability after intravenous and topical administration; type: in vivo, Goetingen mini-pigs; details: intravenous administration at 1 mg/kg
[3] = cited from earlier work
[4] = cited from earlier work; remark: listed apart in the source
[5] = in vivo; cited from earlier work; remark: listed apart in the source

What does the source list for CCCCNc1ccc(C(=O)OCCN(C)C)cc1 [tetracaine, Tetracaine]?
hydrolysis in plasma [1]: rapid; clearance (printed: purified) [2]: highly purified; distribution (printed: dispersed) [2]: highly dispersed

With CCCCNc1ccc(C(=O)OCCN(C)C)cc1 [Tetracaine Hydrochloride] as the compound, how does the Water solubility [3] read?
The Water solubility was 150 g/L.

With CCN(CC)CC(=O)Nc1c(C)cccc1C [lidocaine, Lidocaine] as the compound, how does the “extension of the effect” value ([4]; addition of epinephrine (5 μg/ml)) read?
Its value is 50%.

And the duration of effect ([4]; aerosol)?
The duration of effect was 5 to 6 min.

And the onset of effect ([4]; aerosol)?
Its onset of effect is 1 min.

What about the “duration of anti-arrhythmic effect” value ([4]; endotracheal administration) of the same compound?
Its value is 30 to 50 min.

And the “onset of anti-arrhythmic effect” value ([4]; endotracheal administration)?
Its value is 10 to 15 s.

And the “time to peak anti-arrhythmic effect” value ([4]; endotracheal administration)?
Its value is 1 to 2 min.

What about the duration of effect ([4]; epidural administration) of the same compound?
The duration of effect was “up to 4 hours”.

What about the onset of effect ([4]; epidural administration) of the same compound?
The onset of effect was 5 to 15 min.

What about the duration of effect ([4]; gel) of the same compound?
Its duration of effect is 30 to 60 min.

And the onset of effect ([4]; gel)?
The onset of effect was 2 to 3 min.

And the “duration of anti-arrhythmic effect” value ([4]; i.v. administration)?
Its value is 10 to 20 min.

What about the “onset of anti-arrhythmic effect” value ([4]; i.v. administration) of the same compound?
The value was 45 to 90 s.

What about the duration of effect ([4]; infiltration anesthesia) of the same compound?
The duration of effect was 30 to 60 min.

What about the onset of effect ([4]; infiltration anesthesia) of the same compound?
Its onset of effect is 0.5 to 1 min.

What about the “absorbed from the gastrointestinal tract” value [5] of the same compound?
Its value is 30-40%.

And the “excreted by the kidneys unchanged” value [5]?
The value was 10%.
